Measurements as given in patent publication US20220160608A1, “PEPTIDE FOR REDUCING HAIR LOSS AND PROMOTING HAIR GROWTH, AND COSMETIC COMPOSITION AND PHARMACEUTICAL COMPOSITION COMPRISING SAME” (INCOSPHARM CORPORATION, priority 2019, published 2022).
Blank lines part the entries; values can stand above or below the molecule they belong to.

Assays:
[1] = test system: growth hormones VEGF, IGF-I, FGF10; experiment: Western blot for expression of hair-related growth hormone proteins in HFDPCs; assay type: cell-based, human; settings: 10 or 40 μM respectively, 48 hours
Description: Specifically, human follicular dermal papilla cells (HFDPCs) were uniformly plated with western blot experimental method at the number of 1×10^5 cells in a 6-well plate and cultured in an incubator in DMEM (Dulbecco's Modified Eagle Media, Gibco BRL) for 24 hours at 37° C. under 5% CO2 conditions. […] Thereafter, 1 ml of each dilution solution was added in each well containing 1 ml of medium, and incubated for 48 hours. After the culture was completed, the medium was removed and the cells were disrupted with SDS sample buffer, followed by separating each protein on SDS-PAGE gel electrophoresis, transferring to a polyvinylidene fluoride (PVDF) membrane, and then removing non-specific binding using a blocking buffer.

FGF1 and FGF7 = experiment: RT-PCR for FGF1 and FGF7 gene expression in human dermal papilla cells; assay type: cell-based; settings: 10 or 40 μM
From the text: (§1) After completion of the culture, the cells were disrupted with Trizol (Ambion), total mRNA was collected with chloroform/isopropanol, and cDNA was synthesized with reverse transcriptase.

[2] = test system: Wnt/β-catenin signaling pathway; settings: HFDPCs; for expression of p-GSK3β protein / expression of β-catenin protein: Western blot, compared to control group not treated with the peptide; for expression of active β-catenin protein, concentration screening: all concentrations from 0.1 μM to 100 μM (SEQ ID NO: 5) or 50 μM (SEQ ID NO: 10), effect not concentration-dependent
Description: Human follicular dermal papilla cells (HFDPCs) were uniformly plated at the number of 1×10^5 or 5×10^4 cells in a 6-well plate and cultured in an incubator in DMEM (Dulbecco's Modified Eagle Media, Gibco BRL) for 24 hours at 37° C. under 5% CO2 conditions. […] After adding 1 ml of each dilution to each well containing 1 ml of the medium the cells were incubated for a certain period of time. After the culture was completed, the medium was removed, the cells were disrupted with SDS sample buffer. Each protein was separated by SDS-PAGE gel electrophoresis and transferred to a polyvinylidene fluoride (PVDF) membrane, and then non-specific binding was eliminated using a blocking buffer.

[3] = test system: p21 (cyclin-dependent kinase inhibitor 1a, Cdkn1a); settings: HFDPCs, Western blot, compared to the control group
Description: Specifically, human follicular dermal papilla cells (HFDPCs) were uniformly plated with western blot experimental method at the number of 1×10^5 cells in a 6-well plate and cultured in an incubator in DMEM (Dulbecco's Modified Eagle Media, Gibco BRL) for 24 hours at 37° C. under 5% CO2 conditions. The peptides of SEQ ID NO: 5 and SEQ ID NO: 10 of the present invention were dissolved in water at a concentration of 10 mM to obtain a concentrate, which was diluted with a medium to an optimal concentration of 10 or 40 μM, respectively. Thereafter, 1 ml of each dilution solution was added in each well containing 1 ml of medium, and incubated for 48 hours. After the culture was completed, the medium was removed and the cells were disrupted with SDS sample buffer, followed by separating each protein on SDS-PAGE gel electrophoresis, transferring to a polyvinylidene fluoride (PVDF) membrane, and then removing non-specific binding using a blocking buffer.
In order to analyze whether p21 may be inhibited by treatment with peptides of SEQ ID NO: 5 and SEQ ID NO: 10, Western blot for an expression of p21 protein was performed.
After transferring to a PVDF membrane (polyvinylidene fluoride), non-specific binding was eliminated using a blocking buffer.

MMP-2 and ALP = experiment: RT-PCR for MMP-2 and ALP gene expression in human dermal papilla cells; assay type: cell-based; settings: compared to the control group
Description: as §1
RT-PCR (Thermal Cycler, Bio-rad) was performed using primers specific for MMP-2 and ALP, and the amplified product was analyzed by agarose gel electrophoresis, and the results are shown in (a) of FIG. 6.

human hair follicles = settings: SEQ ID NO: 5 100 μM, SEQ ID NO: 10 16.6 μM; 7 or 10 days culture; compared to IGF-1 (10 ng/ml) or Minoxidil (10 μM) positive control
Description: After separating the surrounding tissues, the hair follicles isolated from the human scalp tissues were stored in Earle's balanced salts solution (EBSS; SigmaAldrich). The hair follicles in anagen phase were carefully separated under a microscope and then used in the experiment. The isolated hair follicles were cultured in Williams medium E (Gibco, Grand Island, N.Y., USA) at 37° C., 5% CO2 and 95% air with an addition of 2 mM L-glutamine (Gibco, NY, USA), 10 μg/ml insulin (SigmaAldrich), 10 ng/ml hydrocortisone (SigmaAldrich), 100 Unit/ml penicillin and 100 μg/ml streptomycin. […] At this time, as a positive control group, Minoxidil (10 μM) or IGF-1 (10 ng/ml) was treated.

[4] = test system: Wnt/β-catenin signaling pathway inhibited by DKK-1; experiment: Inhibition of DKK-1 activity: reactivation of Wnt/β-catenin signaling inhibited by recombinant DKK-1 (Western blot, HFDPCs); settings: for recovery (increase) of expression level of non-phospho (active) β-catenin: peptide treated simultaneously with recombinant DKK-1
Description: Specifically, human follicular dermal papilla cells (HFDPCs) were uniformly plated at the number of 5×10^4 cells in a 12-well plate and cultured in an incubator in DMEM (Dulbecco's Modified Eagle Media, Gibco BRL) for 24 hours at 37° C. under 5% CO2 conditions. After culturing, each well was treated with the recombinant protein DKK-1 to inhibit the Wnt/β-catenin signaling pathway, and further treated with the peptides of SEQ ID NO: 5 and SEQ ID NO: 10 of the present invention at appropriate concentrations, followed by culturing for a certain period of time.
After the culture was completed, the medium was removed, the cells were disrupted with SDS sample buffer. Each protein was separated by SDS-PAGE gel electrophoresis and transferred to a PVDF membrane (polyvinylidene fluoride), and then non-specific binding was eliminated using a blocking buffer.

LRP5 = LRP5 (human, UniProt O75197 32-1615); experiment: cell-based or functional assay
Chain of LRP5 (O75197 32-1615): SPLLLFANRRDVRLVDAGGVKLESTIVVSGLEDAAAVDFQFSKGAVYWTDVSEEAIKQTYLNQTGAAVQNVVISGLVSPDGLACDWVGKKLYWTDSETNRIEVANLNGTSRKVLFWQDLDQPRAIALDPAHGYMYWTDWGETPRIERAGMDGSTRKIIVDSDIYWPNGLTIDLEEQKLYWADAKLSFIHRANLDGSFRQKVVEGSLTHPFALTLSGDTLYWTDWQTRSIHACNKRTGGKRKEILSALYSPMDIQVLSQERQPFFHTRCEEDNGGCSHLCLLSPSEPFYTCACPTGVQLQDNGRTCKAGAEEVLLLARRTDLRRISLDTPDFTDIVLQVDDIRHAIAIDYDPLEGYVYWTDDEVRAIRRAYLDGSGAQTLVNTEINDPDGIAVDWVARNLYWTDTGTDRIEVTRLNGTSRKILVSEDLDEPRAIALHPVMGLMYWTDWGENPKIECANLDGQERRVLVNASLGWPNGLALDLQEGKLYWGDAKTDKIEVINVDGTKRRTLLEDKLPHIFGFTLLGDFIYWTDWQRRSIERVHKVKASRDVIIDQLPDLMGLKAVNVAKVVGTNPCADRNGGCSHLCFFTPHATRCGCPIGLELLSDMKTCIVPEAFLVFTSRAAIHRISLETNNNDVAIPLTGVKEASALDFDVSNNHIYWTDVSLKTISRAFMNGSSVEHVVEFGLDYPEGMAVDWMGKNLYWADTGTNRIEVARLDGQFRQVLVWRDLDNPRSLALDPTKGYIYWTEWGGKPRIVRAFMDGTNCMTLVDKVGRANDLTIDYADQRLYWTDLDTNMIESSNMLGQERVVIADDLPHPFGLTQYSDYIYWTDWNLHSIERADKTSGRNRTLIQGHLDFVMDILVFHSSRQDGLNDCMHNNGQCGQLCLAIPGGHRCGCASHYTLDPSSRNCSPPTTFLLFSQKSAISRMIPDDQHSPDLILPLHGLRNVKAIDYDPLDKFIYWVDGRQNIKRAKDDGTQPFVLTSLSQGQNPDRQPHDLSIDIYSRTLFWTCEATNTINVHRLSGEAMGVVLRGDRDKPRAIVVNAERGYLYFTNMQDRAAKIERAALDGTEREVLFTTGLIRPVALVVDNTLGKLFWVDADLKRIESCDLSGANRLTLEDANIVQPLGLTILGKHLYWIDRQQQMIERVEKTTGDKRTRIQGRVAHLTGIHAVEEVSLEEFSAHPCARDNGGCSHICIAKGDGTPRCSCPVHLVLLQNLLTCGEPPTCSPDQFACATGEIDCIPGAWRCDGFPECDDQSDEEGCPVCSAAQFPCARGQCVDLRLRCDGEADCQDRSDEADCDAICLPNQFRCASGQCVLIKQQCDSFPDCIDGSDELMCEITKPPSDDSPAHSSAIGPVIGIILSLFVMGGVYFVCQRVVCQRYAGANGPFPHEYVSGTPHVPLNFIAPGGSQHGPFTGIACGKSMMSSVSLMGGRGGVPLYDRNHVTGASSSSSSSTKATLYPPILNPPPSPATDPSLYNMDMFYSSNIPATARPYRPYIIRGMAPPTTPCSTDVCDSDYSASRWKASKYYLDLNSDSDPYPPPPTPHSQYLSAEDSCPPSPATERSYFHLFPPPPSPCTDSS

LRP6 = LRP6 (human, UniProt O75581 20-1613); experiment: cell-based or functional assay
Chain of LRP6 (O75581 20-1613): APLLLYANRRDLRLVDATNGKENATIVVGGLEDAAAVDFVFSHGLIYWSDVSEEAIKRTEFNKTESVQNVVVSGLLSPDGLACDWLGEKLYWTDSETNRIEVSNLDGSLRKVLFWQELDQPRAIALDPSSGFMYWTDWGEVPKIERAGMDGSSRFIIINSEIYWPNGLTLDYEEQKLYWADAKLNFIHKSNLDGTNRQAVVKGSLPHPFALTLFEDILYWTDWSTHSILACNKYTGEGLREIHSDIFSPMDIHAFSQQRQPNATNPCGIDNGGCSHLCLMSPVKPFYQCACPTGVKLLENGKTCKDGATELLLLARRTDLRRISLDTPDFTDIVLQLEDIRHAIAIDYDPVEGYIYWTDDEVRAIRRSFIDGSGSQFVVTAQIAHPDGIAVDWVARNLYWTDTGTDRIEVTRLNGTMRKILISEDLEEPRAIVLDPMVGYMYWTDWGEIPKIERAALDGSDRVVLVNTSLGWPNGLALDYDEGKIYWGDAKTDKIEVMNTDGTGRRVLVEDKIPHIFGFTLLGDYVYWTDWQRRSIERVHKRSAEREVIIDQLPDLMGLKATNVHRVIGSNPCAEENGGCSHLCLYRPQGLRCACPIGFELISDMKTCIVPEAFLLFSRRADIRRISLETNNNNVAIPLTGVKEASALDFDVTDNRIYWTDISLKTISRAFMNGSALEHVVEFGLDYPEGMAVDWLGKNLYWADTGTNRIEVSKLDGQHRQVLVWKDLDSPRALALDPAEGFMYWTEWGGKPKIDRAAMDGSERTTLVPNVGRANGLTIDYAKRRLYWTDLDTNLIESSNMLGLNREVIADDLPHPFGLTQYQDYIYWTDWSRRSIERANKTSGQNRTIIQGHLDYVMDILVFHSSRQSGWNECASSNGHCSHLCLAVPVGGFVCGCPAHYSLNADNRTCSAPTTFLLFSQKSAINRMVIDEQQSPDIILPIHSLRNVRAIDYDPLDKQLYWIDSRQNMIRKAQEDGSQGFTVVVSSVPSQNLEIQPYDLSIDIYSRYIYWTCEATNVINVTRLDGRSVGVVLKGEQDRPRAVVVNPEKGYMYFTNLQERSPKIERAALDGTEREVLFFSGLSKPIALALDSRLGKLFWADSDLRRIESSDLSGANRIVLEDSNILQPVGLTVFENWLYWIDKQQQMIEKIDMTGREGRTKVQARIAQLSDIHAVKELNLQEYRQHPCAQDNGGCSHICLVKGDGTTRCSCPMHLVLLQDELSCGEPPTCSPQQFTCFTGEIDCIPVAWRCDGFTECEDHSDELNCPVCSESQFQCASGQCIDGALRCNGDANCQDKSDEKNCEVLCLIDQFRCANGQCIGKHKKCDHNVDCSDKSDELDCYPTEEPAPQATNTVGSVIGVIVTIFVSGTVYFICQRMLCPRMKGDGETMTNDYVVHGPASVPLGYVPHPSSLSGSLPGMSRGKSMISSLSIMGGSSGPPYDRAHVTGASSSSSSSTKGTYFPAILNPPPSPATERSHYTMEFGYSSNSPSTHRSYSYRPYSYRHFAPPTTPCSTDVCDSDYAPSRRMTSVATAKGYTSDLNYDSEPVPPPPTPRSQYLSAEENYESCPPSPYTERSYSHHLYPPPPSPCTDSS

Molecule: arginine-isoleucine-proline [SEQ ID NO: 10]
expression of FGF10 protein [1]: increased
expression of IGF-I protein [1]: increased
expression of VEGF protein [1]: increased
expression of FGF1 gene (FGF1 and FGF7): increased
expression of FGF7 gene (FGF1 and FGF7): increased
expression of p-GSK3β protein [2]: significantly increased
expression of β-catenin protein [2]: significantly increased
expression of active β-catenin protein, concentration screening [2]: increased
p21 protein expression [3]: significantly reduced
gene expression of ALP (MMP-2 and ALP): increased
gene expression of MMP-2 (MMP-2 and ALP): increased
hair shaft growth (length of hair shaft) (human hair follicles): superior hair shaft growth
recovery (increase) of expression level of non-phospho (active) β-catenin [4]: ~31%

Molecule: serine-cysteine-arginine-isoleucine-glutamine [SEQ ID NO: 5]
expression of FGF10 protein [1]: increased
expression of IGF-I protein [1]: increased
expression of VEGF protein [1]: increased
expression of FGF1 gene (FGF1 and FGF7): increased
expression of FGF7 gene (FGF1 and FGF7): increased
expression of p-GSK3β protein [2]: significantly increased
expression of β-catenin protein [2]: significantly increased
expression of active β-catenin protein, concentration screening [2]: increased
p21 protein expression [3]: significantly reduced
gene expression of ALP (MMP-2 and ALP): increased
gene expression of MMP-2 (MMP-2 and ALP): increased
hair shaft growth (length of hair shaft) (human hair follicles): superior hair shaft growth
recovery (increase) of expression level of non-phospho (active) β-catenin [4]: about 10%

B1: DKK-1: recombinant protein, potent antagonist of the Wnt/β-catenin signaling pathway, ligand of LRP5/6 (protein)
chain: TLNSVLNSNAIKNLPPPLGGAAGHPGSAVSAAPGILYPGGNKYQTIDNYQPYPCAEDEECGTDEYCASPTRGGDAGVQICLACRKRRKRCMRHAMCCPGNYCKNGICVSSDQNHFRGEIEETITESFGNDHSTLDGYSRRTTLSSKMYHTKGQEGSVCLRSSDCASGLCCARHFWSKICKPVLKEGQVCTKHRRKGSHGLEIFQRCYCGEGLSCRIQKDHHQASNSSRLHTCQRH
decrease of expression level of non-phospho(active) β-catenin ([4]; control group treated with recombinant protein DKK-1): about 24%

Next, values leading:

expression level of non-phospho(active) β-catenin in HFDPCs (western blot), decrease against untreated control (LRP5): 24%
expression level of non-phospho(active) β-catenin in HFDPCs (western blot), decrease against untreated control (LRP6): 24%
Molecule: recombinant protein DKK-1 (Dickkopf-1) (from UniProt O94907 32-266) (ligand)

expression level of non-phospho (active) β-catenin in HFDPCs treated with recombinant DKK-1 (western blot), recovery (LRP5): ~31%
expression level of non-phospho (active) β-catenin in HFDPCs treated with recombinant DKK-1 (western blot), recovery (LRP6): ~31%
Molecule: RIP [peptide of SEQ ID NO: 10 (arginine-isoleucine-proline, RIP)]

expression level of non-phospho (active) β-catenin in HFDPCs treated with recombinant DKK-1 (western blot), recovery (LRP5): ~10%
expression level of non-phospho (active) β-catenin in HFDPCs treated with recombinant DKK-1 (western blot), recovery (LRP6): ~10%
Molecule: SCRIQ [peptide of SEQ ID NO: 5 (serine-cysteine-arginine-isoleucine-glutamine, SCRIQ)]
